In publication PMC4928336, “A microalga, Euglena tuba induces apoptosis and suppresses metastasis in human lung and breast carcinoma cells through ROS-mediated regulation of MAPKs” (Cancer Cell International, 2016):
Values after ≈ are worked out from the molar mass of the structure shown.

Columns and labels:
Assay in all cases: cells
[1] = test system: MCF-7 cells; conditions: for IC50: Homo sapiens, MCF7, 48 h, read-out: IC50 against MCF-7; for IC50 against MCF-7: WST-1, 48 h, mean ± SD (n = 6)
Protocol: (§1) Cell viability were analysed using the WST-1 cell proliferation reagent according to the earlier described technique. All cells (1 × 10^4 cells/well) were treated for 48 h with concentrations ranging from 0–200 µg/ml of ETME, ascorbic acid, catechin, tannic acid, reserpine, methyl gallate and rutin. Cell proliferation and viability were measured by measuring absorbance of the coloured product spectrophotometrically at 460 nm using a microplate ELISA reader […] EX (Thermo Electron Corporation, USA).
(§2) All spectrophotometric data were presented as the mean six times ±SD and cell cycle and ROS analysis data by FACS was introduced as the mean three times ±SD. The statistical analysis was determined by KyPlot version 2.0 beta 15 (32 bit). […] The IC50 values were compared by paired t test. P < 0.05 was considered significant.

[2] = test system: WI-38 cells; conditions: for IC50: Homo sapiens, WI-38, 48 h, read-out: IC50 against WI-38; for IC50 against WI-38: WST-1, 48 h, mean ± SD (n = 6)
Protocol: as §1, §2

[3] = test system: A549 cells; conditions: for IC50: Homo sapiens, A549, 48 h, read-out: IC50 against A549; for IC50 against A549: WST-1, 48 h, mean ± SD (n = 6)
Protocol: as §1, §2

Compound: O=C1O[C@H]([C@@H](O)CO)C(O)=C1O [Ascorbic acid, reference compound]
- cytotoxicity against MCF-7 cells [1]: toxic
- IC50 [1]: 79.1 ± 2.2 µg/mL (≈ 449 µM)
- cytotoxicity against WI-38 cells [2]: negligible cytotoxicity
- IC50 [2]: 6800 ± 2250 µg/mL (≈ 38600 µM)
- cytotoxicity against A549 cells [3]: negligible cytotoxicity
- IC50 [3]: 6020 ± 3440 µg/mL (≈ 34200 µM)

Compound: O.Oc1cc(O)c2c(c1)O[C@H](c1ccc(O)c(O)c1)[C@@H](O)C2 [Catechin]
- cytotoxicity against MCF-7 cells [1]: toxic
- IC50 against MCF-7 [1]: 256.52 ± 17.14 µg/mL
- cytotoxicity against WI-38 cells [2]: negligible cytotoxicity
- IC50 against WI-38 [2]: 753.56 ± 31.99 µg/mL
- cytotoxicity against A549 cells [3]: negligible cytotoxicity
- IC50 against A549 [3]: 4010.65 ± 1849.57 µg/mL

Compound: COC(=O)c1cc(O)c(O)c(O)c1 [Methyl gallate]
- cytotoxicity against MCF-7 cells [1]: promissive cytotoxicity
- IC50 [1]: 53 ± 1.91 µg/mL (≈ 288 µM)
- cytotoxicity against WI-38 cells [2]: promissive cytotoxicity
- IC50 [2]: 344 ± 31.3 µg/mL (≈ 1870 µM)
- cytotoxicity against A549 cells [3]: promissive cytotoxicity
- IC50 [3]: 77.2 ± 1.82 µg/mL (≈ 420 µM)

Compound: COC(=O)[C@H]1[C@H]2C[C@@H]3c4[nH]c5cc(OC)ccc5c4CCN3C[C@H]2C[C@@H](OC(=O)c2cc(OC)c(OC)c(OC)c2)[C@@H]1OC [Reserpine, reference compound]
- cytotoxicity against MCF-7 cells [1]: promissive cytotoxicity
- IC50 [1]: 57.3 ± 2.29 µg/mL (≈ 94.1 µM)
- cytotoxicity against WI-38 cells [2]: promissive cytotoxicity
- IC50 [2]: 50.5 ± 1.48 µg/mL (≈ 82.9 µM)
- cytotoxicity against A549 cells [3]: promissive cytotoxicity
- IC50 [3]: 68.5 ± 1.73 µg/mL (≈ 112 µM)

Compound: C[C@@H]1O[C@@H](OC[C@H]2O[C@@H](Oc3c(-c4ccc(O)c(O)c4)oc4cc(O)cc(O)c4c3=O)[C@H](O)[C@@H](O)[C@@H]2O)[C@H](O)[C@H](O)[C@H]1O [Rutin]
- cytotoxicity against MCF-7 cells [1]: toxic
- IC50 [1]: 271 ± 9.85 µg/mL (≈ 444 µM)
- cytotoxicity against WI-38 cells [2]: negligible cytotoxicity
- IC50 [2]: 1230 ± 195 µg/mL (≈ 2020 µM)
- cytotoxicity against A549 cells [3]: negligible cytotoxicity
- IC50 [3]: 4180 ± 1610 µg/mL (≈ 6840 µM)

Compound: Tannic acid
- cytotoxicity against MCF-7 cells [1]: promissive cytotoxicity
- IC50 against MCF-7 [1]: 97.24 ± 4.89 µg/mL
- cytotoxicity against WI-38 cells [2]: promissive cytotoxicity
- IC50 against WI-38 [2]: 308.32 ± 8.32 µg/mL
- cytotoxicity against A549 cells [3]: promissive cytotoxicity
- IC50 against A549 [3]: 302.25 ± 11.86 µg/mL
